Results on four compounds are retold here after patent publication US10328075B2, “Method of treatment and compounds for use therein” (Baker Heart and Diabetes Institute, priority 2015, dated 2019).

The subject of this experiment is myocardial I-R injury in C57BL/6 mice. Nature of the experiment: Myocardial I-R in mice: cardiac necrosis after 24 h reperfusion (infarct size, plasma cTnI). Conditions: for Cardioprotection: Infarct size: Table 9; for Cardioprotection: isolated cardio-myocytes in vitro & intact heart subjected to MI in vivo; for Reduction of infarct size / Effect on plasma cTnI levels: small molecules 50 mg/kg i.p., Ac2-26 1 mg/kg i.v. The class given is in vivo, mouse. As to the method: Male C57BL/6 mice were breed and housed in the AMREP Animal Centre and maintained under a 12 h light/dark cycle. After anaesthesia (i.p., ketamine 80 mg/kg, xylazine 20 mg/kg and atropine 1.2 mg/kg), mice were randomly assigned to 24 h, 48 h and 7 days reperfusion groups and underwent reversible left arterial descending (LAD) ligation as described (Gao XM, 2011; JMCC, 50; Gao XM, 2000, JMCC). Following sedation, mice were intubated and ventilated (Harvard apparatus, MA, USA) with room air mixed with oxygen (tidal volume 0.25 mL, 150 breath/min), and placed on a heating pad. A left thoractomy will be made via the ˜third intercostal space, where the beating heart was located.
The LAD was reversibly ligated using 7-0 silk suture with a slipknot enclosing two releasing rings. Regional ischaemia was confirmed by pale colour of the ligated area. Air was then evacuated from the chest, the cavity was closed and normal respiration was restored. After 40-60 min of ischaemia, blood flow through the left coronary artery was re-established by releasing the slipknot. Sham-operated mice underwent identical surgical procedures except the coronary arteries were not ligated. Three cohorts of mice were scheduled. Cohort 1 was subjected to 40 min ischaemic-24 h reperfusion for the assessment of cardiac necrosis. Cohort 2 was subjected to 60 min occlusion with 48 h reperfusion for the quantification of cardiac and systemic inflammation. The last cohort was subjected to 7 d reperfusion and early cardiac fibrosis was assessed.
Treatment with study drugs: Animals were randomly assigned to different groups and all treatments were administrated 5 min prior to reperfusion of the LAD. The peptide Ac2-26 (1 mg kg^−1) (Chemieliva, Chongqing, China) and its vehicle (10% dimethyl sulfoxide (DMSO) in saline) were intravenously (i.v.) injected via the tail vein. […] Mice then received drug or vehicle injections daily until the experimental endpoint. The two different vehicles groups reflect different study drug solubility and administration routes.
Assessment of cardiac necrosis: The optimal time point for assessment of cardiac necrosis is 24 h reperfusion after an ischaemic insult. Plasma levels of cTnI were determined using a commercially available, high-sensitivity rat cTnI ELISA kit (Life Diagnostic Inc., Pennsylvania, USA) as per the manufacturer's instructions. To evaluate the size of the infarction in relation to the area-at-risk (AAR), infarct size (IS) and LV size, 2,3,5-triphenyltetrazolium chloride (TTC) staining was performed. The LAD was tightly re-occluded in anaesthetised mice after 24 h of reperfusion and Evans blue dye (0.1 mL, 5%) was injected as a bolus into the LV. The heart was then excised and rinsed in cold saline to remove excess dye. The LV was isolated, frozen at −20° C. and then cut transversely into six to seven slices at 1.0 mm thickness. LV slices were incubated for 45 min with 1.5% TTC solution at 37° C. The presence of Evans blue indicated perfusion, whereas its absence indicated lack of perfusion to that region, whereas the brick red areas indicate viable myocardium, white or yellowish regions demarcate necrotic tissue. The slices were mounted between glass slides, and images were acquired digitally using […] microscope (Leica Wild M3B, Heerbrugg, Switzerland) coupled with digital camera (Nikon Cool-PIX4500, Tokyo, Japan). The images were analyzed using Image J analysis program (Version 1.45S, National Institute of Health, USA). The non-ischaemic zone (blue area), area-at-risk zone (AAR, red and white or yellow areas), infarct zone (white or yellow areas) and total LV were outlined and quantified blindly. Infarct size was calculated as percentage of infarct zone/risk zone.
Animal Surgery: Adult C57BL/6 mice were randomly assigned to myocardial ischemia-reperfusion (I-R) injury or sham in vivo. […]

The mark [1] stands for this setting: mice, 40 min ischaemia, 24 h reperfusion.

No end group written: not given here.

For the compound `COc1cccc(Cc2cc(C)nn(C(C)C(=O)Nc3ccc(Br)cc3)c2=O)c1` (stereo not shown) [BIDI-001, N-(4-bromophenyl)-2-[5-(3-methoxybenzyl)-3-methyl-6-oxo-6H-pyridazin-1-yl]-propionamide], the Cardioprotection entry is listed as “conferred cardioprotection”. For the same compound, for the setting “mice”, the “Cardioprotection: Infarct size” value is listed as “↓↓”. Also, under “mice, 50 mg/kg i.p.”, the “Effect on cardiac necrosis (cardioprotective action) 24 h post I-R” value was “reduces cardiac necrosis”. Also, under setting [1], the “Reduction of infarct size” value was around 34%. For the same compound, under “mice, 40 min ischaemia, 24 h reperfusion, listed as Cmpd17b”, the “Reduction of infarct size” value is listed as around 35%. In addition, for the setting “mice, 24 h reperfusion”, the “Effect on plasma cTnI levels” value was “significantly reduced”.

For `CC(C)C1C(NC(=O)Nc2ccc(Cl)cc2)C(=O)N(c2ccccc2)N1C` (stereo not shown) [BIDI-002], the “Effect on cardiac necrosis (cardioprotective action) 24 h post I-R” value (mice, 50 mg/kg i.p.) is “lacked cardioprotective actions”. For the same compound, the “Effect on infarct size (in words)” value (mice, 40 min ischaemia, 24 h reperfusion, 50 mg/kg i.p.) was “not”. Moreover, the “Effect on plasma cTnI levels” value (mice, 24 h reperfusion) is “not seen”.

Regarding `Cc1cc(Cc2cccnc2)c(=O)n(CC(=O)Nc2ccc(Cl)cc2)n1` [MIPS-0010396], the Cardioprotection entry is “confers cardioprotection”. In addition, the “Cardioprotection: Infarct size” value (mice) is listed as “↓↓”.

For “Ac2-26: Annexin-A1 N-terminal peptide, peptide ANX-A1 mimetic (Ac-AMVSEFLKQAWFIENEEQEYVQTVK; UniProt P04083 2-26, looked up, fragment)”, under setting [1], the “Reduction of infarct size” value was around 25%. The “Effect on plasma cTnI levels” value (mice, 24 h reperfusion) is recorded as “non-significant trend”.
